Experiments:
[1] = target: T1, AMPK γ1 subunit (in the α2β2γ1 AMPfret heterotrimer) (Rattus norvegicus, UniProt P80385); assay: fluorometric FRET titration of the purified sensor, single-site fit; assay type: binding
T1 construct: gene Prkag1; with AMPK α2 (PRKAA2, Rattus norvegicus) and AMPK β2 (PRKAB2, Homo sapiens)

[2] = target: T1, AMPK γ1 subunit (in the α2β2γ1 AMPfret heterotrimer); assay: fluorometric FRET titration of the purified sensor, single-site fit; also allosteric activation in kinase assay; assay type: binding
Excerpt: fluorometric FRET titration of the purified sensor, single-site fit; also allosteric activation in kinase assay on AMPK γ1 subunit (in the α2β2γ1 AMPfret heterotrimer) | AMPfret reports binding of AMP (in absence of ATP) at one or more binding sites

T1 sequence (P80385 whole entry): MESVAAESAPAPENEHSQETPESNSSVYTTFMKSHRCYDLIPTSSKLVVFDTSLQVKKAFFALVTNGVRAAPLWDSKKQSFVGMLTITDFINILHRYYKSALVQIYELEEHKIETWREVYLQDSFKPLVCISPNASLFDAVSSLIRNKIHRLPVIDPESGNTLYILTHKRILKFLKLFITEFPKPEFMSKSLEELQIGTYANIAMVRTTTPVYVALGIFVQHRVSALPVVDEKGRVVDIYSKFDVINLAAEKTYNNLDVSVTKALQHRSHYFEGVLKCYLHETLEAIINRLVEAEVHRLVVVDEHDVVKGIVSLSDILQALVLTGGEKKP
T1 sequence (Q09137 whole entry partner): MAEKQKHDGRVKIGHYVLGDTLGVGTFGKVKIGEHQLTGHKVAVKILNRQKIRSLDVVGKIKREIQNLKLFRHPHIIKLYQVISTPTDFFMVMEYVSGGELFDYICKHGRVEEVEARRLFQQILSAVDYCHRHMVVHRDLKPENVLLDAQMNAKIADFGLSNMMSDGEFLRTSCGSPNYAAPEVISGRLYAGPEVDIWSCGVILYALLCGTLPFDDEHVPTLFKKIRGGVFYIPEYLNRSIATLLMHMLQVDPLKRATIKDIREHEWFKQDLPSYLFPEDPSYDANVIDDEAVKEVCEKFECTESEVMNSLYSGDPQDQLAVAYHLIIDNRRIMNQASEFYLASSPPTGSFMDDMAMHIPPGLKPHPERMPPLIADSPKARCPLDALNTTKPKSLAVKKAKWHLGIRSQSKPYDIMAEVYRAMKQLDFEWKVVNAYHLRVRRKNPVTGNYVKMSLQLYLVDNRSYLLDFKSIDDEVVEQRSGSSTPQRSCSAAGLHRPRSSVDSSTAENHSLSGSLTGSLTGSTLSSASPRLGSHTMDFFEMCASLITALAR
T1 sequence (O43741 whole entry partner): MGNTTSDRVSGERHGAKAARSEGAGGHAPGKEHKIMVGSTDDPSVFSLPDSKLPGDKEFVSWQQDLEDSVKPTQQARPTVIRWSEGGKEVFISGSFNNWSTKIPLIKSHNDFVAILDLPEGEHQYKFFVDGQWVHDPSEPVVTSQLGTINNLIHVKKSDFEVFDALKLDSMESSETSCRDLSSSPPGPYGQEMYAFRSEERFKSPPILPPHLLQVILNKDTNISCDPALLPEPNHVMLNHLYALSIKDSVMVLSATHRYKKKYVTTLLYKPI

| Compound | Kd [1] [µM] | Kd [2] [nM] |
| --- | --- | --- |
| Nc1ncnc2c1ncn2[C@@H]1O[C@H](COP(=O)(O)OP(=O)(O)O)[C@@H](O)[C@H]1O [ADP] | 7.5 | – |
| Nc1ncnc2c1ncn2[C@@H]1O[C@H](COP(=O)(O)O)[C@@H](O)[C@H]1O [AMP] | – | ~1500 |
